Data set [1] addresses Tubulin (Homo sapiens) (UniProt P68371+Q9H4B7+P0DPH7+P68366+Q13509+Q71U36+P04350+Q3ZCM7+P07437+P68363+Q9BQE3+Q6PEY2+Q13885+Q9BVA1+Q9BUF5). The experiment in a line: Inhibition of tubulin polymerization (unknown origin) at 10 uM by turbidimetric analysis. It counts as protein-complex assay.
The test system of data set [2] is Tubulin. The experiment in a line: Inhibition of tubulin polymerization (unknown origin) by turbidimetric analysis. It counts as protein-complex assay, Homo sapiens.
The subject of data set [3] is MDA-MB-231. In words: Induction of apoptosis in human MDA-MB-231 cells assessed as late apoptotic cells at 2.5 uM incubated for 48 hrs by Annexin V-FITC/PI staining based flow cytometry (reference value: 5.06%). Format: functional.
Data set [4] has as its system MDA-MB-231. The experiment in a line: Induction of apoptosis in human MDA-MB-231 cells assessed as necrotic cells at 2.5 uM incubated for 48 hrs by Annexin V-FITC/PI staining based flow cytometry (reference value: 1.86%). It counts as functional.
Data set [5] has as its system MDA-MB-231. In words: Induction of apoptosis in human MDA-MB-231 cells assessed as viable cells at 2.5 uM incubated for 48 hrs by Annexin V-FITC/PI staining based flow cytometry (reference value: 91.4%). Format: functional. The conditions noted are these: read-out: Activity.
Data set [6] concerns MDA-MB-231. In words: Induction of apoptosis in human MDA-MB-231 cells assessed as early apoptotic cells at 2.5 uM incubated for 48 hrs by Annexin V-FITC/PI staining based flow cytometry (reference value: 1.71%). It counts as functional. A general note: In flow cytometry, cells or beads pass a laser one at a time.
Data set [7] has as its target Poly [ADP-ribose] polymerase 1 (Homo sapiens, UniProt P09874). In words: Inhibition of PARP1 (unknown origin) using [3H]NAD+ as substrate incubated for 15 mins by scintillation counting analysis.
The test system of data set [8] is MDA-MB-231. In words: Induction of apoptosis in human MDA-MB-231 cells incubated for 24 hrs by DAPI staining based confocal laser microscopy. It counts as functional, cell-based.
Data set [9] has as its system MDA-MB-231. The experiment in a line: Cytotoxicity against human MDA-MB-231 cells assessed as inhibition of cell growth incubated for 72 hrs by MTT assay. It counts as functional, cell-based. (In general: Tetrazolium dyes change colour on reduction, which living cells bring about.)
Data set [10] is described as follows: Cytotoxicity against human MCF-10A cells assessed as inhibition of cell growth incubated for 72 hrs by MTT assay. Format: toxicity, cell-based.

Calls of active or inactive are those of the source. The rule behind the calls is not given here.

Sequence of Poly [ADP-ribose] polymerase 1 (P09874 whole entry): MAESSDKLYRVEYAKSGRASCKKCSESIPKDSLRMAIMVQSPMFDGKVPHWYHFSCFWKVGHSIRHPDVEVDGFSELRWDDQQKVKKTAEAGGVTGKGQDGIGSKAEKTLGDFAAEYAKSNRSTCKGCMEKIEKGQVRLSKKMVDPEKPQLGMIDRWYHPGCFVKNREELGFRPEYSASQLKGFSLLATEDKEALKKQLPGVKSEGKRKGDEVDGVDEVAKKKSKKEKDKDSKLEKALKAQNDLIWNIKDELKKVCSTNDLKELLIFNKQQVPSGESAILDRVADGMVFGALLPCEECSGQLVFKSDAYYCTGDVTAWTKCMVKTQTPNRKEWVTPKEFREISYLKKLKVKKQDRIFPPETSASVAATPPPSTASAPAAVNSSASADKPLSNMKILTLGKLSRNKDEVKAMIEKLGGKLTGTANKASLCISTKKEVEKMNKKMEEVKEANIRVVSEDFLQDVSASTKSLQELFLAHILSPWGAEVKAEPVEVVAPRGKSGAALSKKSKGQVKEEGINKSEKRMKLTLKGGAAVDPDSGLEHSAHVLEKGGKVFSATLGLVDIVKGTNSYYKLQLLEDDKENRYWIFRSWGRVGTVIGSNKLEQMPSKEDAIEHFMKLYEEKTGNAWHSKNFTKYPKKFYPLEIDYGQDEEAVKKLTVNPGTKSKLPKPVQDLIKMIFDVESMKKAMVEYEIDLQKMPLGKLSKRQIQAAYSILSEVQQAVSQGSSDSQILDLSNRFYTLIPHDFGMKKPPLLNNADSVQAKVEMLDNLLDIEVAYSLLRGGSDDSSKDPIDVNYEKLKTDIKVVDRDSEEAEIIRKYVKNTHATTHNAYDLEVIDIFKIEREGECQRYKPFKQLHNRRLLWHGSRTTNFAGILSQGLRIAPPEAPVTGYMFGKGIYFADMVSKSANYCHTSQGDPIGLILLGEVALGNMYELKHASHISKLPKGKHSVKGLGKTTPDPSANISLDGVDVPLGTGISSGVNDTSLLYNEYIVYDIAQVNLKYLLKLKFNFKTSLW

The molecule `COc1ccc(-c2nc3ccccc3c(=O)[nH]2)cc1C` registered an inhibition in [1] of 49%. On to `CN(C)C(=O)Cc1ccc2[nH]c(=O)c3ccccc3c2c1`, for which the IC50 entry in data set [2] is “Not Active”. As to `COc1cc(/C=C/c2nc(O)c3ccccc3n2)ccc1O`, in [1], the inhibition is 69%.

In turn, `O=c1[nH]c(/C=C/c2ccc([N+](=O)[O-])cc2)nc2ccccc12` showed an inhibition in [1] of 61%.

Regarding `O=c1[nH]c(/C=C/c2cccc([N+](=O)[O-])c2)nc2ccccc12`, in data set [1], the inhibition was 65%. For `COc1cc2c(c(OC)c1OC)-c1ccc(OC)c(=O)cc1[C@@H](NC(C)=O)CC2` [COLCHICINE], the Activity in [3] is on record as 8.1%; in data set [4] it was 2.04%; in data set [6], 1.89%. Also, in [5], the viability at 2.5 µM was 88%. Also, in data set [7], the IC50 result is recorded as “Not Active”. Also, the result in [8] and in [9] was Active. Moreover, the IC50 at 72 h in data set [10] was found to be 6 nM.

Molecule `O=c1[nH]c(/C=C/c2ccccc2)nc2ccccc12` came in with an inhibition in data set [1] of 82%. `O=c1[nH]c(/C=C/c2cc(Br)ccc2O)nc2ccccc12` had an inhibition in [1] of 63%.

As for `COc1ccc(-c2nc(O)c3ccccc3n2)cc1`, the inhibition in [1] turned out to be 47%. For the molecule `Cc1ccc(-c2nc3ccccc3c(=O)[nH]2)cc1`, in [1], the inhibition was found to be 45%. The same measure, in the same setting: the same measure for `Cc1cccc(-c2nc(O)c3ccccc3n2)c1`: 43%.

Broadly, the inhibition is the percentage by which the read-out fell short of the control. High values mean a strong effect, low ones a weak effect. As usually defined, the IC50 is the midpoint of a concentration-inhibition curve.
